Measurements reported in ChEMBL document CHEMBL3297711, “Application of encoded library technology (ELT) to a protein-protein interaction target: discovery of a potent class of integrin lymphocyte function-associated antigen 1 (LFA-1) antagonists” (Bioorg Med Chem, 2014).
Activity calls are given as the source filed them. The rule behind the calls is not given here.

Assays:
Integrin alpha-L = molecular target: T1, Integrin alpha-L (Homo sapiens, UniProt P20701); assay: (§1) Antagonist activity at C-terminal 6xHis-tagged LFA-1 LBD (unknown origin) expressed in Escherichia coli assessed as inhibition of interaction with ICAM-1 preincubated for 30 mins followed by ICAM-1 addition measured after 60 mins by ELISA
T1 sequence (P20701 whole entry): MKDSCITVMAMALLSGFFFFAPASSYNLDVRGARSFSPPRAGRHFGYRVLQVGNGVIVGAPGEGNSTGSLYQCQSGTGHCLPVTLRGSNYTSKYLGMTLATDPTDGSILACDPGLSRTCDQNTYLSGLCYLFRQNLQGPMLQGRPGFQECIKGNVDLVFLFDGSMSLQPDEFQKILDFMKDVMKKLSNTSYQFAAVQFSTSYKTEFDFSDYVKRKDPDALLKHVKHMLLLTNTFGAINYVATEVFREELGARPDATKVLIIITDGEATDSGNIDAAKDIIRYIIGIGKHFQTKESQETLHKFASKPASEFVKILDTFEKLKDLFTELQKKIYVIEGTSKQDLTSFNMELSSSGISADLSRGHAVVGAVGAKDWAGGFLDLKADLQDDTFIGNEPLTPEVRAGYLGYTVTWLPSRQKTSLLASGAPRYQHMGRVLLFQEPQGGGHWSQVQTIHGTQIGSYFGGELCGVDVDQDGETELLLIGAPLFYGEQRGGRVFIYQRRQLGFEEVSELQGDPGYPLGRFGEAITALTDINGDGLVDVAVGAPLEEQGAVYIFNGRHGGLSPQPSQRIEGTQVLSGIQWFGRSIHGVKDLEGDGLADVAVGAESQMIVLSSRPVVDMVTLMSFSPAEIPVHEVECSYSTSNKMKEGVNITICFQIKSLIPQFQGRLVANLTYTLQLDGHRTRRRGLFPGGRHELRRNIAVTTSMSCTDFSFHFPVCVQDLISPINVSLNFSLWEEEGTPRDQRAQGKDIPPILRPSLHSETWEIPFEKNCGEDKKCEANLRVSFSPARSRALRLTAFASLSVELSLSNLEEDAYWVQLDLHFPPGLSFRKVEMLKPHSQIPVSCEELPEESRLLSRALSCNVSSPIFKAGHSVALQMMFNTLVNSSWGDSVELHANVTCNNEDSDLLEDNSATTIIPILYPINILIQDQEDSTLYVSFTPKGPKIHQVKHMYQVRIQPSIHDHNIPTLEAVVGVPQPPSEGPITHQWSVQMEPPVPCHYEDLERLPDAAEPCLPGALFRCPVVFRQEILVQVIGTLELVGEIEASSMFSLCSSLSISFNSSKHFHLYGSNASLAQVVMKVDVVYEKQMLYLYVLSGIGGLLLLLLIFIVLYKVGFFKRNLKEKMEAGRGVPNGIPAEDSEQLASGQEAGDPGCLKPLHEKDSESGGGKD

[1] = molecular target: T2, Integrin alpha-L (Homo sapiens) (UniProt P20701); assay: Binding affinity to LFA-1 (unknown origin) transfected in human K562 cells by FACS analysis relative to control; type: cell-based
T2 sequence (whole entry): T1 sequence (P20701 whole entry)

[2] = molecular target: T2, Integrin alpha-L (Homo sapiens); assay: Antagonist activity at wild type LFA-1 in human Jurkat cells assessed as inhibition of PMA-stimulated cell adhesion to ICAM-1 at 50 uM incubated for 45 mins under dark condition by microplate fluorimetric analysis; type: cell-based
K562 [3] = assay: Allosteric antagonist activity at LFA-1 K287C/K294C double mutant (unknown origin) transfected in human K562 cells assessed as inhibition of cell adhesion to ICAM-1 at 50 uM incubated for 30 mins under dark condition by microplate fluorimetric analysis in presence of DTT; type: cell-based
K562 [4] = assay: Allosteric antagonist activity at LFA-1 K287C/K294C double mutant (unknown origin) transfected in human K562 cells assessed as inhibition of cell adhesion to ICAM-1 at 50 uM incubated for 30 mins under dark condition by microplate fluorimetric analysis in absence of DTT; type: cell-based
[5] = molecular target: T2, Integrin alpha-L (Homo sapiens); assay: Allosteric antagonist activity at wild type LFA-1 (unknown origin) transfected in human K562 cells assessed as inhibition of cell adhesion to ICAM-1 at 50 uM incubated for 30 mins under dark condition by microplate fluorimetric analysis; type: cell-based
[6] = molecular target: T2, Integrin alpha-L (Homo sapiens); assay: as §1

## CCNC(=O)C1(Nc2nc(NCC)nc(N3CC4CC3CN4C(=O)c3cccc(C(F)(F)F)c3)n2)Cc2ccccc2C1 (stereo not drawn)
Integrin alpha-L
  IC50: > 10000 nM

## CCN1/C(=C/C=C/C2=[N+](CCCCCC(=O)NCCCCNC(=O)C3(Nc4nc(NCCc5ccc(Cl)c(Cl)c5)nc(N5CC6CC5CN6C(=O)c5cccc(C(F)(F)F)c5)n4)Cc4ccccc4C3)c3ccc(S(=O)(=O)O)cc3C2(C)C)C(C)(C)c2cc(S(=O)(=O)O)ccc21 (stereo not drawn)
[1]
  fold change (FC): 3
Integrin alpha-L
  IC50: 100 nM

## CCNC(=O)C1(Nc2nc(NCCc3ccccc3)nc(N3CC4CC3CN4C(=O)c3cccc(C(F)(F)F)c3)n2)Cc2ccccc2C1 (stereo not drawn)
Integrin alpha-L
  IC50: 488 nM

## O=C(c1cccc(C(F)(F)F)c1)N1CC2CC1CN2c1nc(NCCc2ccc(Cl)c(Cl)c2)nc(NC2(C(=O)O)Cc3ccccc3C2)n1 (stereo not drawn)
Integrin alpha-L
  IC50: 37 nM

## CCNC(=O)C1(Nc2nc(NCCc3ccc(Cl)c(Cl)c3)nc(N3CC4CC3CN4S(=O)(=O)c3ccccc3OC(F)(F)F)n2)Cc2ccccc2C1 (stereo not drawn)
[2]
  inhibition: Active
K562 [3]
  inhibition: Active
K562 [4]
  inhibition: inactive
[5]
  inhibition: Active
Integrin alpha-L
  IC50: 22 nM
[6]
  inhibition: Dose-dependent effect

## CCNC(=O)C1(Nc2nc(NCCc3ccc(Cl)c(Cl)c3)nc(N3CCCC3)n2)Cc2ccccc2C1
Integrin alpha-L
  IC50: 12900 nM

## CCNC(=O)C1(Nc2nc(NCc3ccccc3)nc(N3CC4CC3CN4C(=O)c3cccc(C(F)(F)F)c3)n2)Cc2ccccc2C1 (stereo not drawn)
Integrin alpha-L
  IC50: 7900 nM

## O=C(c1cccc(C(F)(F)F)c1)N1CC2CC1CN2c1nc(NCCc2ccc(Cl)c(Cl)c2)nc(NC2Cc3ccccc3C2)n1 (stereo not drawn)
Integrin alpha-L
  IC50: 358 nM

## CCN1/C(=C/C=C/C2=[N+](CCCCCC(=O)NCCCCNC(=O)C3(Nc4nc(NCCc5ccc(Cl)c(Cl)c5)nc(N5CC6CC5CN6S(=O)(=O)c5cccc(C(F)(F)F)c5)n4)Cc4ccccc4C3)c3ccc(S(=O)(=O)O)cc3C2(C)C)C(C)(C)c2cc(S(=O)(=O)O)ccc21 (stereo not drawn)
[1]
  fold change (FC): 2
Integrin alpha-L
  IC50: 28 nM

## CCNC(=O)C1(Nc2nc(N[C@@H](C)c3ccc(Br)cc3)nc(N3CC4CC3CN4S(=O)(=O)c3ccccc3OC(F)(F)F)n2)Cc2ccccc2C1 (stereo partly drawn)
[2]
  inhibition: Active
K562 [3]
  inhibition: Active
K562 [4]
  inhibition: inactive
[5]
  inhibition: Active
Integrin alpha-L
  IC50: 117 nM
[6]
  inhibition: Dose-dependent effect

## O=C(O)C1(Nc2nc(NCCc3ccc(Cl)c(Cl)c3)nc(N3CC4CC3CN4S(=O)(=O)c3cccc(C(F)(F)F)c3)n2)Cc2ccccc2C1 (stereo not drawn)
Integrin alpha-L
  IC50: 65 nM

## CCNC(=O)C1(Nc2nc(N[C@@H](C)c3ccc(Br)cc3)nc(N3CC4CC3CN4C(=O)c3cccc(C(F)(F)F)c3)n2)Cc2ccccc2C1 (stereo partly drawn)
[2]
  inhibition: Active
K562 [3]
  inhibition: Active
K562 [4]
  inhibition: inactive
[5]
  inhibition: Active
Integrin alpha-L
  IC50: 16 nM
[6]
  inhibition: Dose-dependent effect

## CCNC(=O)C1(Nc2nc(N[C@@H](C)c3ccccc3)nc(N3CC4CC3CN4C(=O)c3cccc(C(F)(F)F)c3)n2)Cc2ccccc2C1 (stereo partly drawn)
Integrin alpha-L
  IC50: 180 nM

## O=C(c1cccc(C(F)(F)F)c1)N1CC2CC1CN2c1nc(NCCc2ccc(Cl)c(Cl)c2)nc(NC2CCCC2)n1 (stereo not drawn)
Integrin alpha-L
  IC50: > 10000 nM

## CCNC(=O)C1(Nc2nc(NCCc3ccc(Cl)c(Cl)c3)nc(N3CC4CC3CN4C(=O)c3cccc(C(F)(F)F)c3)n2)Cc2ccccc2C1 (stereo not drawn)
[2]
  inhibition: Active
K562 [3]
  inhibition: Active
K562 [4]
  inhibition: inactive
[5]
  inhibition: Active
Integrin alpha-L
  IC50: 23 nM
[6]
  inhibition: Dose-dependent effect

## CCNC(=O)C1(Nc2nc(N[C@H](C)c3ccccc3)nc(N3CC4CC3CN4C(=O)c3cccc(C(F)(F)F)c3)n2)Cc2ccccc2C1 (stereo partly drawn)
Integrin alpha-L
  IC50: > 10000 nM
